In patent publication US20070218491A1, “Oligomerization of amyloid proteins” (Oligomerix, Inc., priority 2006, published 2007):
Read-outs that look alike come from different tables or passages of the source.

What was measured:
[1] = target: T1, human islet amyloid polypeptide (Homo sapiens, UniProt P10997); conditions: cited from earlier work
T1 sequence (P10997 34-70 limits assumed): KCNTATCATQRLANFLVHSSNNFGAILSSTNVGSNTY

tau = tau (Homo sapiens, UniProt P10636); assay: Screening compounds for inhibition of RNA-facilitated tau oligomer formation (modified ELISA); type: biochemical; conditions: incubations with RQ11+12 RNA polyanion; FIG. 14
tau, sequence (P10636 1-412 isoform P10636-7): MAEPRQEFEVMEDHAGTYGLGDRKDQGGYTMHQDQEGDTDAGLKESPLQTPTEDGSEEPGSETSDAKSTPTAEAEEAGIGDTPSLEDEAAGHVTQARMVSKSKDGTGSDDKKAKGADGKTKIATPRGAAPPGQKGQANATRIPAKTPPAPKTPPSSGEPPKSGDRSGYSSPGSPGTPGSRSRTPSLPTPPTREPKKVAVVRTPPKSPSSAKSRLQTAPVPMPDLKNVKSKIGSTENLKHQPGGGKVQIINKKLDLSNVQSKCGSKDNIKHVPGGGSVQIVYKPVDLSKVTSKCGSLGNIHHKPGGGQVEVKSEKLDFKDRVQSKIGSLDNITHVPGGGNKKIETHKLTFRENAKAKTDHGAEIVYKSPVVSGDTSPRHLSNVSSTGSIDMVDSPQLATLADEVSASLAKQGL
Description: RNA polyanion was used to facilitate oligomer formation of tau protein in vitro using the following, preferred, conditions: 20 pmoles of tau412 was reacted with 4 pmoles of a 197 base RNA, i.e., RQ11+12, in 50 mM Tris-HCl buffer at pH of 7.4 and incubated for 1 hour at 37° C. […] The 5:1 ratio was optimal for the RNA RQT157 as well (FIG. 15). […] The kinetics of oligomer formation was rapid. […] Physiological pH and temperature were used in the assay to simulate biological conditions.
Formation of tau oligomers was analyzed using two different ELISA methods to provide verified data. The “modified” ELISA uses the same monoclonal antibody for capture and detection. Insoluble aggregates are removed in the ELISA procedure during washing steps. Only soluble aggregates of tau, not monomers, are detected with this ELISA because the detection and reporter antibody recognizes an epitope which is present only once within tau. At least one more tau molecule must be present in the complex for detection with the same antibody (method illustrated in FIG. 7). The modified ELISA used is similar to the modified ELISA previously used for identification of Aβ oligomers (Sian et al., Biochem. J. 349(Pt 1):299-308 2000)) and PrP oligomers (Vasan et al., Neurochem Res 31(5):629-37(2006)). […]

tau412 = tau412 (Homo sapiens, UniProt P10636); assay: Polyanion-facilitated tau412 oligomer formation detected by ELISA (modified, A11, DC11); type: biochemical; conditions: for facilitation of tau412 oligomer formation by heparin or DNA: modified ELISA, FIGS. 13 and 16
tau412, sequence (P10636 1-412 isoform P10636-7): as above
Description: The 5:1 ratio was optimal for the RNA RQT157 as well (FIG. 15). […] The kinetics of oligomer formation was rapid. […] Physiological pH and temperature were used in the assay to simulate biological conditions. Formation of tau oligomers was analyzed using two different ELISA methods to provide verified data. The “modified” ELISA uses the same monoclonal antibody for capture and detection. Insoluble aggregates are removed in the ELISA procedure during washing steps. Only soluble aggregates of tau, not monomers, are detected with this ELISA because the detection and reporter antibody recognizes an epitope which is present only once within tau. At least one more tau molecule must be present in the complex for detection with the same antibody (method illustrated in FIG. 7). The modified ELISA used is similar to the modified ELISA previously used for identification of Aβ oligomers (Sian et al., Biochem. J. 349(Pt 1):299-308 2000)) and PrP oligomers (Vasan et al., Neurochem Res 31(5):629-37(2006)). This assay used antibody MN1000, recognizing tau epitope amino acids 159-163, for capture and biotinylated MN1000 as reporter. […] The second ELISA method to detect oligomers is based on polyclonal antibody A11 which recognizes a common structure in soluble amyloid oligomers (FIGS. 8-10, and 12). (Kayed et al., Science 300: 486-491(2003)). […] This assay was used to optimize the molar ratio of tau:RNA for oligomer formation (FIGS. 8 and 15), follow oligomer formation over time (FIG. 10), show tau oligomer formation with a range of RNAs (FIG. 12), and detect soluble tau oligomers in CSF (FIG. 11). A third ELISA was used to show biological relevance of the tau oligomers formed in this assay to tau in AD and is based on monoclonal antibodies DC11 used for capture and biotinylated MN1000 for reporter. The antibody DC11 recognizes a conformational epitope in tau specific for AD (Vechterova et al., Neuroreport 1:87-91 (2003)). […] Oligomer formation was determined by modified ELISA (described above). […]

## Cc1ccc(C(=O)Nc2ccc(S(=O)(=O)O)c3cc(S(=O)(=O)O)cc(S(=O)(=O)O)c23)cc1NC(=O)c1cccc(NC(=O)Nc2cccc(C(=O)Nc3cc(C(=O)Nc4ccc(S(=O)(=O)O)c5cc(S(=O)(=O)O)cc(S(=O)(=O)O)c45)ccc3C)c2)c1 [Suramin]
[1]; at high concentrations
  effect on amyloid fibril formation: stimulated the process
[1]; at low concentrations
  effect on amyloid fibril formation: inhibited amyloid fibril formation

## COc1cc(/C=C/C(=O)CC(=O)/C=C/c2ccc(O)c(OC)c2)ccc1O [curcumin]
tau
  inhibition of RNA-facilitated tau oligomer formation: inhibition

## Heparin
tau412
  facilitation of tau412 oligomer formation by heparin or DNA: effective in facilitating tau oligomer formation

## Polydeoxythymidine
tau412
  facilitation of tau412 oligomer formation by heparin or DNA: enhanced tau412 oligomer formation

## polyA
tau412; 5:1 tau:RNA ratio, detected with A11 Ab, FIG. 12
  facilitation of tau oligomer formation by RNA: facilitated tau oligomer formation
